Measured values as given in ChEMBL document CHEMBL1641539 (Bioorg Med Chem Lett, 2011).
pIC50: −log10 of the molar value.

Experiments:
[1] = biological target: Serine/threonine-protein kinase PLK2 (Homo sapiens) (UniProt Q9NYY3); test: Inhibition of PLK2 at 10 uM after 60 mins by TR-FRET assay
[2] = biological target: Mitogen-activated protein kinase 10 (Homo sapiens, UniProt P53779); test: Inhibition of recombinant JNK3 after 60 mins by TR-FRET assay
[3] = biological target: T1, Aurora kinase A (Homo sapiens) (UniProt O14965); test: Inhibition of Aurora A at 10 uM after 60 mins by TR-FRET assay
T1 sequence (whole entry): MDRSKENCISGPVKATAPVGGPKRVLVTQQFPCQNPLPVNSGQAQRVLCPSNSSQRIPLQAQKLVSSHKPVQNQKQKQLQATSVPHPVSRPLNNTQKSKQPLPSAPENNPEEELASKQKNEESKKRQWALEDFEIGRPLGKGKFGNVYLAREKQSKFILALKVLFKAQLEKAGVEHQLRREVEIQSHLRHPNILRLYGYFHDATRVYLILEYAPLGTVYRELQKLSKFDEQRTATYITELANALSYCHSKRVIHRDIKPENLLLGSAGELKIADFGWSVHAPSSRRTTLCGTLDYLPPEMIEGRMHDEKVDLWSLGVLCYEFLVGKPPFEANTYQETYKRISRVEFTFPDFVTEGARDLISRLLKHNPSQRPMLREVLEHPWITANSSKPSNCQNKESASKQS

[4] = Apparent permeability of the compound from apical to basolateral direction in MDCK2 cells at 5 uM after 120 mins; assay type: ADME, cell-based, Canis lupus familiaris, MDCK-II; settings: dog, MDCK
[5] = test system: RAF proto-oncogene serine/threonine-protein kinase (Homo sapiens), P04049 [Y340D,Y341D]; test: Inhibition of RAF1 Y340D, Y341D mutant at 10 uM after 60 mins by TR-FRET assay
[6] = biological target: Mitogen-activated protein kinase 8 (Homo sapiens, UniProt P45983); test: Inhibition of recombinant JNK1 after 60 mins by TR-FRET assay
[7] = biological target: T2, Dual specificity protein kinase TTK (Homo sapiens) (UniProt P33981); test: Inhibition of TTK at 10 uM after 60 mins by TR-FRET assay
T2 sequence (whole entry): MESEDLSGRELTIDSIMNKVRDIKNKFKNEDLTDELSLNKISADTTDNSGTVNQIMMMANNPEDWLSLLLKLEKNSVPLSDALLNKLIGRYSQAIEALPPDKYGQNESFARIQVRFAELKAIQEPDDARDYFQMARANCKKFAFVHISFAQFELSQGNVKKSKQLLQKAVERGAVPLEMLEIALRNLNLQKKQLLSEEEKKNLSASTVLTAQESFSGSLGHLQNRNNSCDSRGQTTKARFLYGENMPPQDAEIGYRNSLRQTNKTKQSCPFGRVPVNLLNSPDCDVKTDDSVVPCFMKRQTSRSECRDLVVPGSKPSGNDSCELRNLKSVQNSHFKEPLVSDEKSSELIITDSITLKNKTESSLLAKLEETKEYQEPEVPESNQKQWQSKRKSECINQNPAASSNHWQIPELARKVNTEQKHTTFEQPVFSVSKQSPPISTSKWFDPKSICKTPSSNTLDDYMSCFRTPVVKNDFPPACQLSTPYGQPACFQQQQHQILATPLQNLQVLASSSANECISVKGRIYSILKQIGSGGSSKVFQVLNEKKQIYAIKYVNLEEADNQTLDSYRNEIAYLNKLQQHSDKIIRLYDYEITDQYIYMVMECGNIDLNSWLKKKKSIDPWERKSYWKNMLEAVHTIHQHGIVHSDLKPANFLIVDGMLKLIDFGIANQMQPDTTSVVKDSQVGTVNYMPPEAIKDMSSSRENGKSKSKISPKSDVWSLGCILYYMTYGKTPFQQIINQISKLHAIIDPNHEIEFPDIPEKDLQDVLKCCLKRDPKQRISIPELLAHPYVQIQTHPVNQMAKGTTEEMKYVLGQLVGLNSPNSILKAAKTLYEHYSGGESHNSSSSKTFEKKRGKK

[8] = biological target: RAC-alpha serine/threonine-protein kinase (Homo sapiens) (UniProt P31749); test: Inhibition of AKT1 at 10 uM after 60 mins by TR-FRET assay
[9] = biological target: Mitogen-activated protein kinase 1 (Homo sapiens, UniProt P28482); test: Inhibition of recombinant ERK2 after 60 mins by TR-FRET assay
[10] = biological target: Serine/threonine-protein kinase 16 (Homo sapiens) (UniProt O75716); test: Inhibition of STK16 at 10 uM after 60 mins by TR-FRET assay
[11] = biological target: Dual specificity protein kinase CLK1 (Homo sapiens) (UniProt P49759); test: Inhibition of CLK1 at 10 uM after 60 mins by TR-FRET assay
[12] = biological target: Rho-associated protein kinase 2 (Homo sapiens) (UniProt O75116); test: Inhibition of ROCK2 at 10 uM after 60 mins by TR-FRET assay
[13] = Efflux ratio, ratio of permeability from apical to basolateral in MDCK2 cells over expressing MDR1 in presence of P-gp inhibitor to permeability from apical to basolateral in MDCK2 cells over expressing MDR1 in absence of P-gp inhibitor at 5 uM after 120 mins; assay type: ADME, cell-based, Canis lupus familiaris; settings: dog, mdck-ii, 2 h
[14] = biological target: Mitogen-activated protein kinase 9 (Homo sapiens, UniProt P45984); test: Inhibition of recombinant JNK2 after 60 mins by TR-FRET assay
[15] = biological target: PI3-kinase p110-alpha/p85-alpha (Homo sapiens) (UniProt P27986+P42336); test: Inhibition of p110alpha/p85alpha at 10 uM after 60 mins by TR-FRET assay; assay type: protein-complex assay
[16] = biological target: Tyrosine-protein kinase JAK1 (Homo sapiens) (UniProt P23458); test: Inhibition of JAK1 at 10 uM after 60 mins by TR-FRET assay
[17] = Oxidative metabolic stability in mouse liver microsomes assessed as compound remaining at 2 uM after 30 mins; assay type: ADME, Microsome; settings: read-out: Stability
[18] = Oxidative metabolic stability in human liver microsomes assessed as compound remaining at 2 uM after 30 mins; assay type: ADME, Microsome; settings: read-out: Stability
[19] = biological target: Serine/threonine-protein kinase PAK 4 (Homo sapiens) (UniProt O96013); test: Inhibition of PAK4 at 10 uM after 60 mins by TR-FRET assay
Chain of Serine/threonine-protein kinase PAK 4 (Homo sapiens) (O96013 whole entry, looked up): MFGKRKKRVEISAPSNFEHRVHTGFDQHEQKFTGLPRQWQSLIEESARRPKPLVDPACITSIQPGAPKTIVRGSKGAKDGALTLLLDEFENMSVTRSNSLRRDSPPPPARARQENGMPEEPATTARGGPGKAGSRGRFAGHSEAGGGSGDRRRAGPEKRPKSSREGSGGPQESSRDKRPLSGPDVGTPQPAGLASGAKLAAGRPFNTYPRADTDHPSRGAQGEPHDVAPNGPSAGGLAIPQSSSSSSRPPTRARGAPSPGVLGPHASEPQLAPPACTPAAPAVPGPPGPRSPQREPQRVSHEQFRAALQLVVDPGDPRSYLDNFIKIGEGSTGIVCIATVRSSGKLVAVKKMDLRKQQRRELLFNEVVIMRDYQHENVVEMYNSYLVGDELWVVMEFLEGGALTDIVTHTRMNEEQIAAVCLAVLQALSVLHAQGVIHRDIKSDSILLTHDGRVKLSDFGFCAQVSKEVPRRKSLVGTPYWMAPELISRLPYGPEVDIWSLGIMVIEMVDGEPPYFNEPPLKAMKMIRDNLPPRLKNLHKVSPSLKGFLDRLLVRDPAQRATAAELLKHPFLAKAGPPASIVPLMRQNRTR

Chain of Mitogen-activated protein kinase 8 (P45983 whole entry): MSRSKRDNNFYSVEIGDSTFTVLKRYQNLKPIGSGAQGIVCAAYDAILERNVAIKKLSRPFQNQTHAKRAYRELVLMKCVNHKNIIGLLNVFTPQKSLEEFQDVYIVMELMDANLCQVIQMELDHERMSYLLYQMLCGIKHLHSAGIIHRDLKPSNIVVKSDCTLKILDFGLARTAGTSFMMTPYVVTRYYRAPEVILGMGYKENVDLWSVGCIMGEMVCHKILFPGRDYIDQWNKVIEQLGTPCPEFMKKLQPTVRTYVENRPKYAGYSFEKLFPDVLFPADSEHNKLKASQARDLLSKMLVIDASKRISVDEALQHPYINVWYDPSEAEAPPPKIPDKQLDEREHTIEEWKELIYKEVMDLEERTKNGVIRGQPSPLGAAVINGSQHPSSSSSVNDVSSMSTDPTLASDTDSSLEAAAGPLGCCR
Chain of Mitogen-activated protein kinase 10 (P53779 whole entry): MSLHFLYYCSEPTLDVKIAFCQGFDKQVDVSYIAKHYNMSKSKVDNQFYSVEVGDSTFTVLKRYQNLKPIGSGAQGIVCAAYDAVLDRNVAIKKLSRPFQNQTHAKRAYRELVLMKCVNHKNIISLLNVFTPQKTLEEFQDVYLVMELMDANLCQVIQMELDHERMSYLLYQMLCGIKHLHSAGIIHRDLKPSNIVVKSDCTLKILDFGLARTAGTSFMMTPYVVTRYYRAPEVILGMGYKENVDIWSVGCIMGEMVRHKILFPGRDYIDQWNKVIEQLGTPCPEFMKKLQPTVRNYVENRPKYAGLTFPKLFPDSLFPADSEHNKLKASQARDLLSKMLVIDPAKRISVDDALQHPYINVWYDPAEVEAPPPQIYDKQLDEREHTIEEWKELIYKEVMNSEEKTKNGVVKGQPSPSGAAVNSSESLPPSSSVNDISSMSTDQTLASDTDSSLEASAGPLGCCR
Chain of Dual specificity protein kinase CLK1 (Homo sapiens) (P49759 whole entry, looked up): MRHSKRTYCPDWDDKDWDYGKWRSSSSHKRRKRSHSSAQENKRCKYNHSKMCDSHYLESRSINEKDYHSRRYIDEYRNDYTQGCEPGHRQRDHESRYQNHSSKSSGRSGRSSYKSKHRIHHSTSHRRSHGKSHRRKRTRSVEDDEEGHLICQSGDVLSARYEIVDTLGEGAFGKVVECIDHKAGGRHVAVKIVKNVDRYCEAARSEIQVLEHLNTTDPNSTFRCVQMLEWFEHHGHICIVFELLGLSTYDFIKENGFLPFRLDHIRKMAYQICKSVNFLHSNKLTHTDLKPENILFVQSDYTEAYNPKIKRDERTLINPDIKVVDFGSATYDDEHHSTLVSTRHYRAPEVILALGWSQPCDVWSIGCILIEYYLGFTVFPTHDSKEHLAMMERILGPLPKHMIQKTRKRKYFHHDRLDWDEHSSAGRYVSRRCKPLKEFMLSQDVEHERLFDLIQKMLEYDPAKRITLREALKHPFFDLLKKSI
Chain of Tyrosine-protein kinase JAK1 (Homo sapiens) (P23458 whole entry): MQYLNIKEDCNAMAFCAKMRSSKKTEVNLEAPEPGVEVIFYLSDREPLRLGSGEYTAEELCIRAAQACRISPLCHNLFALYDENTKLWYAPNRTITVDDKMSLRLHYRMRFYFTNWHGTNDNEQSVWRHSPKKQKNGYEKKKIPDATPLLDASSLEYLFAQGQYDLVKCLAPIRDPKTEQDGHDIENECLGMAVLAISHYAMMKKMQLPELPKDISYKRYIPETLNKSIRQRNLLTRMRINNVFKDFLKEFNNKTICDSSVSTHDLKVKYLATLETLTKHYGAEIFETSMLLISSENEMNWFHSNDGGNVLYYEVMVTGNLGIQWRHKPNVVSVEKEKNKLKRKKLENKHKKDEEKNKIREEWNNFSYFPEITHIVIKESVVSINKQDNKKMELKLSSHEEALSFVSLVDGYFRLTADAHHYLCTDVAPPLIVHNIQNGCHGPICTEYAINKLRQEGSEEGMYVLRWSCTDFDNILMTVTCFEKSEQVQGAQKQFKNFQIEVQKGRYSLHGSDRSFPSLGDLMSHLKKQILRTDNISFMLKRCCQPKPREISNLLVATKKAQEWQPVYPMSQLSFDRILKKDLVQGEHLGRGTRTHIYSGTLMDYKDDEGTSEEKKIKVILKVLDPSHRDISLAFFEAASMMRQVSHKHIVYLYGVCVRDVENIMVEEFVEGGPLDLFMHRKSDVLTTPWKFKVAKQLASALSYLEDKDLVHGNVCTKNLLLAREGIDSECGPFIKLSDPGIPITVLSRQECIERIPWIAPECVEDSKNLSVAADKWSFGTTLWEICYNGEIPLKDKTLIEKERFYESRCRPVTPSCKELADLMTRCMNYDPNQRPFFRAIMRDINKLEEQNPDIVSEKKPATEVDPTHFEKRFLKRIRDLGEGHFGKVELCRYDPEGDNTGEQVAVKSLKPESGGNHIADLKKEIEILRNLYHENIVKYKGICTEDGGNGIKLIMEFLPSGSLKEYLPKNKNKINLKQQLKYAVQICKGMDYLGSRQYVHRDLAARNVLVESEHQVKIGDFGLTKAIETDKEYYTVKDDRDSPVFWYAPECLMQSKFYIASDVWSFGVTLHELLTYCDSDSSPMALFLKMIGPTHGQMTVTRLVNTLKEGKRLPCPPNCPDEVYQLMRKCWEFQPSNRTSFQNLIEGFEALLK
Chain of Mitogen-activated protein kinase 9 (P45984 whole entry): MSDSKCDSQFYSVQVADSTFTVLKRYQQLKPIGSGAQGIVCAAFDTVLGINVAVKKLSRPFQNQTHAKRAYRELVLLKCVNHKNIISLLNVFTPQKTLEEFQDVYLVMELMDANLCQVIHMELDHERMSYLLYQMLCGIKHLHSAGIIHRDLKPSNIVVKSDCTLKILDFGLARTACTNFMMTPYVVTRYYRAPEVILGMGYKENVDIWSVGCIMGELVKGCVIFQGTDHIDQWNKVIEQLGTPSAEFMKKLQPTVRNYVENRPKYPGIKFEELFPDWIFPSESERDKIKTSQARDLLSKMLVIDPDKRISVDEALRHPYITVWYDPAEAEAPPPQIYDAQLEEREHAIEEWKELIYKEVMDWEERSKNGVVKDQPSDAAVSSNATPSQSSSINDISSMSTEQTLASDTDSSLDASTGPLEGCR
Chain of Mitogen-activated protein kinase 1 (P28482 whole entry): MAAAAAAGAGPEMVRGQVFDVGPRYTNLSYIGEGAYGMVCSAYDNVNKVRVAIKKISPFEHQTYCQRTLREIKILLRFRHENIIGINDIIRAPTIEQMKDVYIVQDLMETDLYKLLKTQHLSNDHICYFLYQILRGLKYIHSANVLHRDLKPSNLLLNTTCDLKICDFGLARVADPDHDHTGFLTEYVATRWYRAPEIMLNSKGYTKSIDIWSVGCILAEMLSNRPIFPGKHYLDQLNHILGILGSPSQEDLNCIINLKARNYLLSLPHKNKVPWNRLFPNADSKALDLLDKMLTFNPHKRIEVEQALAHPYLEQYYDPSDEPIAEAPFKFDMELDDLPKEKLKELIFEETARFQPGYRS
Chain of RAF proto-oncogene serine/threonine-protein kinase (Homo sapiens), P04049 [Y340D,Y341D] (P04049 whole entry Y340D/Y341D): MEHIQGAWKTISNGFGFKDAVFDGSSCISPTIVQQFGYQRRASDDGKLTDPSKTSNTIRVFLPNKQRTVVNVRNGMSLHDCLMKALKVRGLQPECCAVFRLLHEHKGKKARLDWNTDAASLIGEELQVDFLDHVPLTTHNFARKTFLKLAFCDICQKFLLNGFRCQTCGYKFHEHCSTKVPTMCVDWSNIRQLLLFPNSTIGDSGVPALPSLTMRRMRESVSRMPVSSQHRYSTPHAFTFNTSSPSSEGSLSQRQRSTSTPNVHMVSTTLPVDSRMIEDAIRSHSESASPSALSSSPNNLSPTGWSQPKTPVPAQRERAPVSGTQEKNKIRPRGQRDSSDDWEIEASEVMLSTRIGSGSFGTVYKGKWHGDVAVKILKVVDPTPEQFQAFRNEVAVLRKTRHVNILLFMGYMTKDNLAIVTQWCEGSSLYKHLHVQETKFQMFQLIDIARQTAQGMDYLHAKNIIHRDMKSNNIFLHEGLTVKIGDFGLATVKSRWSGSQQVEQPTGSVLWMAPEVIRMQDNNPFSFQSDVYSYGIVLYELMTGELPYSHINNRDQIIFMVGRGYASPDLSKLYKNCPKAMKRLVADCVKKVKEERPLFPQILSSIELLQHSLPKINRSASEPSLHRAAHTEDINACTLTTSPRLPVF
Chain of Serine/threonine-protein kinase 16 (Homo sapiens) (O75716 whole entry): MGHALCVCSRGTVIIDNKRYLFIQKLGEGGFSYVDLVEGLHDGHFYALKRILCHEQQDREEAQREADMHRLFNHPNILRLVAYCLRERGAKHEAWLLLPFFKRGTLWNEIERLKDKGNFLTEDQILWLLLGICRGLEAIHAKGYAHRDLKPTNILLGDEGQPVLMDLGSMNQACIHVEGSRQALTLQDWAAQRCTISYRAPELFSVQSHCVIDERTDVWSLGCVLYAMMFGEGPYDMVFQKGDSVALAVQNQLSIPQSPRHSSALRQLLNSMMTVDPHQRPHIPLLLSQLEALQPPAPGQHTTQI

SMILES	inhibition [1] [%]	pIC50 [2]	inhibition [3] [%]	Papp A→B at 2 h, 5 µM [4] [×10⁻⁶ cm/s]	inhibition [5] [%]	pIC50 [6]	inhibition [7] [%]	inhibition [8] [%]	pIC50 [9]	inhibition [10] [%]	inhibition [11] [%]	inhibition [12] [%]	Ratio [13]	pIC50 [14]	inhibition [15] [%]	inhibition [16] [%]	remaining at 0.5 h, 2 µM [17] [%]	remaining at 0.5 h, 2 µM [18] [%]	inhibition [19] [%]
O=c1[nH]nc(-c2ccnc(NC3CCOCC3)c2)n1-c1ccc2ccccc2c1	33	7.07	30	15.7	16	5.74	44	3	< 4.30	38	6	10	12	6.60	49	-3	12	73	
O=c1[nH]nc(-c2ccnc(NC3CCCOC3)c2)n1-c1ccc2ccccc2c1 (stereo not drawn)	62	7.49	10		0	6.13	30	0	4.66	21	22	8		6.89	34	1			69
O=c1n(Cc2ccncc2)nc(-c2ccnc(NC3CCCCC3)c2)n1-c1ccc2ccccc2c1	0	7.54	-5	8.1	-2	6.15		-2	< 4.30		3	6		7.01	6	-4	48	2	-1
O=c1[nH]nc(-c2ccnc(NC3CCCCC3)c2)n1-c1ccc2ccccc2c1	15	7.62	17	0.9	13	6.00	10	-1	< 4.30	-1	7	15	2.6	7.16	29	1	2.6	57	-2

The remaining compounds from weak to strong by pIC50 [6], led by results:

inhibition [1] [%]	pIC50 [2]	inhibition [3] [%]	Papp A→B at 2 h, 5 µM [4] [×10⁻⁶ cm/s]	inhibition [5] [%]	pIC50 [6]	inhibition [7] [%]	inhibition [8] [%]	pIC50 [9]	inhibition [10] [%]	inhibition [11] [%]	inhibition [12] [%]	Ratio [13]	pIC50 [14]	inhibition [15] [%]	inhibition [16] [%]	remaining at 0.5 h, 2 µM [17] [%]	remaining at 0.5 h, 2 µM [18] [%]	inhibition [19] [%]	SMILES
5	7.27	2	18.5	0	6.00	0	-5	< 4.30	-9	2	5	1.4	7.03	-5		1.4	40		O=c1n(Cc2ccccn2)nc(-c2ccnc(NC3CCOCC3)c2)n1-c1ccc2ccccc2c1
26		0		-3	6.38	3	0	< 4.30		4	9		7.01	0	1			27	O=c1n(C2CCOCC2)nc(-c2ccnc(NC3CCCCC3)c2)n1-c1ccc2ccccc2c1
